Source: the supplement of paper PMC10307832

How the values were obtained:
Test in all cases: relative viability (nuclei count vs DMSO), 5 days (fraction); higher = more cells survive
Entinostat + Foretinib = compound: Nc1ccccc1NC(=O)c1ccc(CNC(=O)OCc2cccnc2)cc1 [Entinostat] + COc1cc2c(Oc3ccc(NC(=O)C4(C(=O)Nc5ccc(F)cc5)CC4)cc3F)ccnc2cc1OCCCN1CCOCC1 [Foretinib] (partner 0.25 µM)
Procedure, shortened: (§1)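 Lung cancer cell lines in 1536-well plates were dosed by pin tool the day after seeding, either with one drug alone or with a fixed anchor-drug dose plus five library-drug doses (not always all listed) in √10 steps. After 5 days, cells were fixed and their nuclei stained in one step (final 0.05% Triton X-100, 1% formaldehyde, 1 ug/ml Hoechst), then counted on 4× images. Relative viability is the nuclei count in treated wells divided by that in vehicle wells. Values are medians of duplicate plates.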

SGI-1776 + Navitoclax = compound: CN1CCC(CNc2ccc3ncc(-c4cccc(OC(F)(F)F)c4)n3n2)CC1 [SGI-1776] + CC1(C)CCC(c2ccc(Cl)cc2)=C(CN2CCN(c3ccc(C(=O)NS(=O)(=O)c4ccc(N[C@H](CCN5CCOCC5)CSc5ccccc5)c(S(=O)(=O)C(F)(F)F)c4)cc3)CC2)C1 [Navitoclax] (partner 0.5 µM)
Procedure, shortened: as §1

[1] = compound: C1COCCN1C2=NC(=NC3=C2OC4=C3C=CC=N4)C5=CC(=CC=C5)NC(=O)C6=CN=C(C=C6)N + C[C@]1(O)C[C@@H](c2nc(-c3ccc4ccc(-c5ccccc5)nc4c3)c3c(N)nccn32)C1 [Linsitinib] (partner 1 µM)
Procedure, shortened: as §1

Entinostat + Alpelisib = compound: Nc1ccccc1NC(=O)c1ccc(CNC(=O)OCc2cccnc2)cc1 [Entinostat] + Cc1nc(NC(=O)N2CCC[C@H]2C(N)=O)sc1-c1ccnc(C(C)(C)C(F)(F)F)c1 [Alpelisib] (partner 2 µM)
Procedure, shortened: as §1

| Cell Line | relative viability (Entinostat + Foretinib; first compound 0.02 µM) | relative viability (Entinostat + Foretinib; first compound 0.06325 µM) | relative viability (Entinostat + Foretinib; first compound 0.2 µM) | relative viability (Entinostat + Foretinib; first compound 0.6325 µM) | relative viability (Entinostat + Foretinib; first compound 2 µM) | relative viability (SGI-1776 + Navitoclax; first compound 0.08 µM) | relative viability (SGI-1776 + Navitoclax; first compound 0.8 µM) | relative viability (SGI-1776 + Navitoclax; first compound 2.53 µM) | relative viability (SGI-1776 + Navitoclax; first compound 8 µM) | relative viability ([1]; first compound 0.02 µM) | relative viability ([1]; first compound 0.06325 µM) | relative viability ([1]; first compound 0.2 µM) | relative viability ([1]; first compound 0.6325 µM) | relative viability ([1]; first compound 2 µM) | relative viability (Entinostat + Alpelisib; first compound 0.02 µM) | relative viability (Entinostat + Alpelisib; first compound 0.06325 µM) | relative viability (Entinostat + Alpelisib; first compound 0.2 µM) | relative viability (Entinostat + Alpelisib; first compound 0.6325 µM) | relative viability (Entinostat + Alpelisib; first compound 2 µM) |
| --- | --- | --- | --- | --- | --- | --- | --- | --- | --- | --- | --- | --- | --- | --- | --- | --- | --- | --- | --- |
| SW 900 | 0.946 | 0.878 | 1.04 | 0.674 | 0.533 |  |  |  |  |  |  |  |  |  |  |  |  |  |  |
| NCI-H1944 | 1 | 0.711 | 0.472 | 0.364 | 0.218 | 1.03 | 1.09 | 1.07 | 1.07 | 1.19 | 1.17 | 1.16 | 1.13 | 1 | 0.81 | 0.774 | 0.556 | 0.422 | 0.273 |
| NCI-H838 | 1.05 | 1.23 | 1.12 | 0.746 | 0.321 | 1.12 | 1.22 | 1.14 | 0.869 | 0.977 | 1.08 | 0.933 | 0.78 | 0.371 | 1.03 | 1.15 | 1.13 | 0.72 | 0.301 |
| NCI-H1651 | 0.817 | 0.855 | 0.851 | 0.632 | 0.394 | 1.19 | 1.04 | 0.9 | 0.825 | 0.996 | 0.917 | 0.957 | 1.09 | 0.357 | 1.08 | 0.979 | 0.994 | 0.748 | 0.372 |
| HCC-827 | 0.954 | 0.962 | 0.83 | 0.737 | 0.355 | 1.05 | 1.01 | 1.08 | 0.99 | 0.924 | 0.929 | 0.968 | 1.01 | 0.988 | 0.836 | 0.848 | 0.607 | 0.532 | 0.359 |
| HCC-366 | 0.994 | 0.992 | 0.685 | 0.265 | 0.0997 | 1.06 | 0.964 | 1.2 | 1.09 | 0.918 | 0.82 | 0.574 | 0.472 | 0.207 | 0.537 | 0.521 | 0.43 | 0.327 | 0.0475 |
| HARA | 0.903 | 0.913 | 1.01 | 0.341 | 0.416 | 1.15 | 1.17 | 1.16 | 1.16 | 1.15 | 1.04 | 1.02 | 0.783 | 0.361 | 0.819 | 0.861 | 0.658 | 0.582 | 0.484 |
| NCI-H441 | 1.08 | 1.05 | 0.805 | 0.377 | 0.298 | 0.775 | 0.732 | 0.629 | 0.374 | 0.522 | 0.609 | 0.569 | 0.534 | 0.357 | 0.577 | 0.665 | 0.608 | 0.22 | 0.18 |
| NCI-H1299 | 1.07 | 1.07 | 1.01 | 0.855 | 0.879 | 1.04 | 1.06 | 0.964 | 1.04 | 0.922 | 1.13 | 0.953 | 1 | 0.805 | 1.09 | 1.02 | 1.06 | 0.883 | 0.815 |
| RERF-LC-KJ | 0.853 | 0.856 | 0.84 | 0.516 | 0.285 | 0.936 | 1.04 | 0.937 | 0.789 | 0.958 | 0.961 | 0.898 | 0.863 | 0.63 | 0.846 | 0.704 | 0.866 | 0.647 | 0.427 |
| CAL-12T | 1.17 | 1.14 | 1.27 | 1.07 | 1.01 | 1.3 | 1.1 | 1.29 | 1.09 | 0.622 | 0.813 | 0.886 | 0.782 | 0.584 | 1.22 | 1.18 | 1.41 | 1.08 | 0.962 |
| COR-L 105 | 1.19 | 0.997 | 1.14 | 0.677 | 0.548 | 0.799 | 0.86 | 1 | 0.546 | 0.984 | 1.03 | 0.822 | 0.905 | 0.672 | 0.842 | 0.925 | 0.844 | 0.608 | 0.345 |
| NCI-H2405 | 1.06 | 1.11 | 0.979 | 0.902 | 0.614 | 0.823 | 0.804 | 0.779 | 0.452 | 0.828 | 0.946 | 0.97 | 0.905 | 0.795 | 0.789 | 1.01 | 0.931 | 0.795 | 0.528 |
| NCI-H2228 | 0.994 | 0.787 | 0.914 | 0.526 | 0.288 | 0.843 | 0.817 | 0.658 | 0.51 | 0.588 | 0.481 | 0.737 | 0.728 | 0.524 | 0.785 | 0.608 | 0.473 | 0.325 | 0.273 |
| PC-14 | 0.991 | 0.951 | 0.969 | 0.441 | 0.232 | 0.97 | 1.05 | 1.04 | 0.93 | 0.991 | 0.999 | 0.953 | 0.86 | 0.502 | 1.03 | 0.99 | 0.935 | 0.487 | 0.219 |
| IA-LM | 1.13 | 1.22 | 1.43 | 1.05 | 0.764 | 0.951 | 0.754 | 0.941 | 0.905 | 0.439 | 0.696 | 0.526 | 0.565 | 0.327 | 0.706 | 0.741 | 0.98 | 0.566 | 0.481 |
| A549 | 1.01 | 0.942 | 0.878 | 0.757 | 0.288 | 1.24 | 1.29 | 1.27 | 0.77 | 0.59 | 0.636 | 0.6 | 0.455 | 0.283 | 0.851 | 0.729 | 0.704 | 0.515 | 0.238 |
